Several values for one entry are separate records, joined by “and”; a condition that tells them apart may be missing. Equal entries are not always repeated.
What was measured:
Chinese cabbage soft rot [1] = experiment: Test for disease control of Chinese cabbage, field (Example 4 / Comparative example 3); assay type: in vivo, Erwinia carotovora; design: key to Disease incidence rate: % of examined plants diseased; key to Disease control value: (1 − treated/untreated severity)×100; 100 = full control; key to Disease severity: severity index 0–100 from disease classes 0–4 (sum/(plants×4)×100); conditions: for Disease incidence rate / Disease severity / Disease control value: 64 days; for Disease control value: vs untreated plot
From the text: (§1) (Disease incidence rate)=[(number of diseased plants)/(number of plants examined)]*100
(§2) (Disease severity)={S [(number of diseased plants in each class into which the plants are classified according to the degree of disease)*(disease index)]/[(number of plants examined)*4]}*100
(§3) (Disease control value)={1-[(Disease severity in treated plot)/(Disease severity in untreated plot)]}*100
(§4) Incidentally, the evaluation criteria for the disease index are as follows. • (Disease index) • 0: No lesion • 1: Lesions appear only in part of outer leaves (shipment can be made). • 2: Lesions appear in outer leaves and part of head leaves (the damaged part is removed and shipment as a small size plant can be made, rated Grade B). • 3: Lesions appear in most head leaves or more (shipment cannot be made). • 4: Lesions appear in the entire plant and the plant dies.
(§5) Preparation was performed using 500 g/L of 3-chloro-N-(3-chloro-5-trifluoromethyl-2-pyridyl)-alpha,alpha,alpha-trifluoro-2,6-dinit ro-p-toluidine (fluazinam, Frowncide SC (trade name), manufactured by Ishihara Sangyo Kaisha, Ltd.) such that the amount of the active ingredient was 62.5 g ai/10 a (125 mL product/10 a), 125 g ai/10 a (250 mL product/10 a), and 250 g ai/10 a (500 mL product/10 a), and each amount of dilution water was 150 L/10 a.
(§6) A mulch-sheet for agricultural use was spreaded on soil, and planting holes for settlement (diameter: about 5 cm) were made, and then, the spray solution prepared in the above was sprayed onto the planting holes such that the amount of treated active ingredient was 0.0625 g/m^2 (150 L/10 a) in the case of the spray solution containing the active ingredient at 62.5 g ai/10 a, 0.125 g/m^2 (150 L/10 a) in the case of the spray solution containing the active ingredient at 125 g ai/10 a, and 0.25 g/m^2 (150 L/10 a) in the case of the spray solution containing the active ingredient at 250 g ai/10 a, followed by air-drying. Then, seedlings of Chinese cabbage (cultivar: Harebutai 65) grown for 4 weeks in a cell tray (128 holes/nursery box) were planted such that 19 seedlings were planted in one test plot having an area of 2.4 m^2 with two replications.
(§7) Preparation was performed by diluting streptomycin (Mycin 20 wettable powder (trade name), manufactured by Hokko Chemical Industry Co., Ltd.) with water to 1/1000.
(§8) In a field covered with a mulch-sheet for agricultural use, seedlings of Chinese cabbage (cultivar: Harebutai 65) grown in a cell tray were planted, in the same manner as in Example 4, and foliage application was performed with a sprayer by spraying the spray solution of streptomycin prepared in (1) (spraying amount per application: 300 L/10 a) twice (27 days and 48 days after the planting of the seedlings).
(§9) The degree of disease incidence was examined for all the plants in each test plot 64 days after the start of the test, and the disease severity and the disease control value were evaluated. Incidentally, the disease severity and the disease control value were obtained in the same manner as described above.

[2] = test system: Erwinia carotovora (potato Erwinia carotovora); experiment: Test for growth inhibition of potato Erwinia carotovora (PSA medium plate); assay type: cell-based; conditions: for Growing state of Erwinia carotovora (formed colonies): PSA medium, 25 degrees C., 4 days, two plates per cell
Method: Reference test example: Test for growth inhibition of potato Erwinia carotovora
A test for growth inhibition of Erwinia carotovora in the case of direct application of the control agent to Erwinia carotovora was performed. To previously melted PSA medium (55 degrees C.), a predetermined amount of a pesticide 3-chloro-N-(3-chloro-5-trifluoromethyl-2-pyridyl)-alpha,alpha,alpha-trifluoro-2,6-dinit ro-p-toluidine (fluazinam, Frowncide SC (trade name), manufactured by Ishihara Sangyo Kaisha, Ltd.), ethaboxam wettable powder (Ethaboxam, Gardian (trade name), manufactured by LG Chemical), or streptomycin (Mycin wettable powder (trade name), manufactured by Hokko Chemical Industry Co., Ltd.) and a suspension of Erwinia carotovora (potato Erwinia carotovora) were added and the resulting mixture was stirred well, and then, poured in a plate. Then, the plate was cultured at 25 degrees C. for 4 days, and the growing state of Erwinia carotovora was examined. Thereafter, the formed colonies were examined according to the following three criteria. • +: Equal to the colonies of the untreated group • Plus or minus: Apparently less than the colonies of the untreated group • −: Almost no colonies

Chinese cabbage soft rot [3] = experiment: Test for disease control of Chinese cabbage, field (Example 3 / Comparative example 2); assay type: in vivo, Erwinia carotovora; design: key to Disease incidence rate: % of examined plants diseased; key to Disease control value: (1 - severity treated/severity untreated) x 100; key to Disease severity: severity index 0-100 from disease index 0-4 weighted counts; conditions: for Disease incidence rate / Disease severity / Disease control value: 54 days; for Disease control value: vs untreated plot
From the text: as §1, §2, §3, §4, §5
as §6, with “about 9” for “about 5”, “(cultivar: Musou)” for “(cultivar: Harebutai 65)”, “that 30” for “that 19”, “of 6” for “of 2.4”
as §7
as §8, with “Musou)” for “Harebutai 65)”, “3,” for “4,”, “performed” for “performed with a sprayer”, “three times (13 days, 20 days,” for “twice (27 days”, “27” for “48”
as §9, with “54” for “64”

[4] = 62.5 g ai/10 a, 150 L/10 a onto planting holes, Harebutai 65, Average
[5] = 125 g ai/10 a, 150 L/10 a onto planting holes, Harebutai 65, Average
[6] = 250 g ai/10 a, 150 L/10 a onto planting holes, Harebutai 65, Average
[7] = 250 g ai/10 a, 150 L/10 a onto planting holes, Harebutai 65, single replications I-II
[8] = 62.5 g ai/10 a, 150 L/10 a onto planting holes, Musou, Average
[9] = 125 g ai/10 a, 150 L/10 a onto planting holes, Musou, Average
[10] = 125 g ai/10 a, 150 L/10 a onto planting holes, Musou, single replications I-II
[11] = 250 g ai/10 a, 150 L/10 a onto planting holes, Musou, Average
[12] = 250 g ai/10 a, 150 L/10 a onto planting holes, Musou, single replications I-II
[13] = 1/1000 dilution, foliage application twice, Harebutai 65, Average
[14] = 1/1000 dilution, foliage application three times, Musou, Average

O=[N+]([O-])c1cc(C(F)(F)F)c(Cl)c([N+](=O)[O-])c1Nc1ncc(C(F)(F)F)cc1Cl [Fluazinam, 3-chloro-N-(3-chloro-5-trifluoromethyl-2-pyridyl)-alpha,alpha,alpha-trifluoro-2,6-dinit ro-p-toluidine] was tested, and the Disease incidence rate (Chinese cabbage soft rot [1]; [4]) was 44.7, the Disease severity (Chinese cabbage soft rot [1]; [4]) was 13.8 and the Disease severity (Chinese cabbage soft rot [1]; 62.5 g ai/10 a, 150 L/10 a onto planting holes, Harebutai 65, single replications I-II) was 9.2 and 18.4. For the same compound, the Disease control value (Chinese cabbage soft rot [1]; 62.5 g ai/10 a, 150 L/10 a onto planting holes, Harebutai 65) was 56.3, the Disease incidence rate (Chinese cabbage soft rot [1]; 62.5 g ai/10 a, 150 L/10 a onto planting holes, cultivar Harebutai 65, single replications I-II) was 36.8 and 52.6 and the Disease incidence rate (Chinese cabbage soft rot [1]; [5]) was 36.1. It also gave a Disease severity (Chinese cabbage soft rot [1]; [5]) of 10.5, a Disease control value (Chinese cabbage soft rot [1]; 125 g ai/10 a, 150 L/10 a onto planting holes, Harebutai 65) of 66.8 and a Disease incidence rate (Chinese cabbage soft rot [1]; [6]) of 31.2. The Disease severity (Chinese cabbage soft rot [1]; [6]) was 8.5, the Disease incidence rate (Chinese cabbage soft rot [1]; [7]) was 23.5 and 38.9 and the Disease severity (Chinese cabbage soft rot [1]; [7]) was 5.9 and 11.1. For the same compound, the Disease control value (Chinese cabbage soft rot [1]; 250 g ai/10 a, 150 L/10 a onto planting holes, Harebutai 65) was 73.1, the “Control effect on Chinese cabbage soft rot compared with foliage application of streptomycin (in words)” value (Chinese cabbage soft rot [1]; Table 4 test, moderate incidence conditions, even at 62.5 g ai/10 a or 125 g ai/10 a) was “a higher control effect” and the “Growing state of Erwinia carotovora (formed colonies)” value (shortened to “Growing state of Erwinia carotovora”) ([2]; Active ingredient concentration 100 ppm) was “+, +”. For the same compound, the “Growing state of Erwinia carotovora” value ([2]; Active ingredient concentration 500 ppm) was “+, +”, the “Growing state of Erwinia carotovora” value ([2]; Active ingredient concentration 1000 ppm) was “±, ±” and the “Growth inhibition of Erwinia carotovora (in words)” value ([2]; active ingredient concentration of 1000 ppm, direct application) was “did not inhibit the growth”. For the same compound, the Disease incidence rate (Chinese cabbage soft rot [3]; [8]) was 100, the Disease severity (Chinese cabbage soft rot [3]; [8]) was 32.1 and the Disease severity (Chinese cabbage soft rot [3]; 62.5 g ai/10 a, 150 L/10 a onto planting holes, Musou, single replications I-II) was 26.7 and 37.5. For the same compound, the Disease control value (Chinese cabbage soft rot [3]; 62.5 g ai/10 a, 150 L/10 a onto planting holes, Musou) was 28.7, the Disease incidence rate (Chinese cabbage soft rot [3]; 62.5 g ai/10 a, 150 L/10 a onto planting holes, cultivar Musou, single replications I-II) was 100 and the Disease incidence rate (Chinese cabbage soft rot [3]; [9]) was 100. The Disease severity (Chinese cabbage soft rot [3]; [9]) was 30.9, the Disease incidence rate (Chinese cabbage soft rot [3]; [10]) was 100 and the Disease severity (Chinese cabbage soft rot [3]; [10]) was 33.3 and 28.4. It also gave a Disease control value (Chinese cabbage soft rot [3]; 125 g ai/10 a, 150 L/10 a onto planting holes, Musou) of 31.3, a Disease incidence rate (Chinese cabbage soft rot [3]; [11]) of 83.3 and a Disease severity (Chinese cabbage soft rot [3]; [11]) of 25. The Disease incidence rate (Chinese cabbage soft rot [3]; [12]) was 73.3 and 93.3, the Disease severity (Chinese cabbage soft rot [3]; [12]) was 20 and 30 and the Disease control value (Chinese cabbage soft rot [3]; 250 g ai/10 a, 150 L/10 a onto planting holes, Musou) was 44.4. The “Control effect on Chinese cabbage soft rot compared with foliage application of streptomycin (in words)” value (Chinese cabbage soft rot [3]; Table 3 test, moderate incidence conditions, even at 62.5 g ai/10 a or 125 g ai/10 a) was “a higher control effect”.

For [H]/N=C(/N)N[C@H]1[C@H](O)[C@@H](O)[C@H](O[C@@H]2O[C@@H](C)[C@](O)(C=O)[C@H]2O[C@@H]2O[C@@H](CO)[C@H](O)[C@@H](O)[C@@H]2NC)[C@@H](N/C(N)=N\[H])[C@@H]1O [Streptomycin, streptomycin], the Disease incidence rate (Chinese cabbage soft rot [1]; 1/1000 dilution, foliage application 300 L/10 a twice (27 and 48 days), Harebutai 65, single replications I-II) was 44.4 and 63.2, the Disease incidence rate (Chinese cabbage soft rot [1]; [13]) was 53.8 and the Disease severity (Chinese cabbage soft rot [1]; [13]) was 14.9. For the same compound, the Disease severity (Chinese cabbage soft rot [1]; 1/1000 dilution, foliage application twice, Harebutai 65, single replications I-II) was 13.9 and 15.8, the Disease control value (Chinese cabbage soft rot [1]; 1/1000 dilution, foliage application twice, Harebutai 65) was 52.8 and the “Growing state of Erwinia carotovora” value ([2]; Active ingredient concentration 1 ppm) was “−, −”. The “Growing state of Erwinia carotovora” value ([2]; Active ingredient concentration 10 ppm) was “−, −”, the Disease incidence rate (Chinese cabbage soft rot [3]; 1/1000 dilution, foliage application 300 L/10 a three times (13, 20, 27 days), Musou, single replications I-II) was 100 and the Disease incidence rate (Chinese cabbage soft rot [3]; [14]) was 100. For the same compound, the Disease severity (Chinese cabbage soft rot [3]; [14]) was 36.7, the Disease severity (Chinese cabbage soft rot [3]; 1/1000 dilution, foliage application three times, Musou, single replications I-II) was 32.5 and 40.8 and the Disease control value (Chinese cabbage soft rot [3]; 1/1000 dilution, foliage application three times, Musou) was 18.4.
